Assay results taken from paper PMC4757768, “Mechanisms of amphetamine action illuminated through optical monitoring of dopamine synaptic vesicles in Drosophila brain” (Nature Communications, 2016).

Target: T1, VMAT2 (Rattus norvegicus, UniProt Q01827)
T1 construct: gene Slc18a2
Test: inhibition of [3H]dopamine uptake in digitonin-treated HEK293 cells stably expressing rat VMAT2; binding Ki […] at mammalian VMAT2 also reported
Format: cell-based

T1 sequence (Q01827 whole entry): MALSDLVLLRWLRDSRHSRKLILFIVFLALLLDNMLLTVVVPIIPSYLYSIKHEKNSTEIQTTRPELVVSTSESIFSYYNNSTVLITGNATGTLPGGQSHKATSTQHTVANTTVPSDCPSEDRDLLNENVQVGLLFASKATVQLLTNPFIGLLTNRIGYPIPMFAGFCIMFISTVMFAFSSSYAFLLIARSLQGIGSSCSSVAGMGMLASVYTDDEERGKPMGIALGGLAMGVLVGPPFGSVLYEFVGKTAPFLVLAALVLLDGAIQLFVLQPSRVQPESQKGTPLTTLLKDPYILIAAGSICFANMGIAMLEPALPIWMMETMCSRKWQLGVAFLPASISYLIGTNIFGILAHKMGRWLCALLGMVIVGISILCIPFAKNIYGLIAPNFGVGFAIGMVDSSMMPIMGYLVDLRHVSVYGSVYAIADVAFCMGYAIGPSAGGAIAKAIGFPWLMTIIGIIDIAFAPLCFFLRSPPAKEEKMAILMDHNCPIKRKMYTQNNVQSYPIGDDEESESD

`COc1cc2c(cc1O)[C@H]1CC(=O)[C@H](CC(C)C)CN1CC2` [(+)-CYY477] gave an IC50 of 26 nM.
